In patent US7511033B2, “Dihydro-benzo[B][1,4]diazepin-2-one sulfonamide derivatives” (Hoffmann-La Roche Inc., priority 2007, dated 2009) one finds Ki and melting point data, which are given here for 19 compounds.

For orientation: Ki means the dissociation constant of the complex between target and ligand, obtained from inhibition or displacement. As a reminder, the melting point is the temperature, or range, at which the solid turns liquid.

In one series the target is T1, rat mGlu2 receptor (Rattus norvegicus, UniProt P31421).
T1 construct: expressed in transfected cells; membranes prepared from them
Description: [3H]-LY354740 binding on mGlu2 transfected CHO cell membranes. Conditions: inhibition of 10 nM [3H]-LY354740 binding, room temperature, 1 hour. The source says: [^3H]-LY354740 Binding on mGlu2 Transfected CHO Cell Membranes. Transfection and Cell Culture
cDNA encoding the rat mGlu2 receptor protein in pBluescript II was subcloned into the eukaryotic expression vector pcDNA I-amp from Invitrogen Ltd (Paisley, UK). This vector construct (pcD1 mGR2) was co-transfected with a psvNeo plasmid encoding the gene for neomycin resistance, into CHO cells by a modified calcium phosphate method described by Chen & Okayama (1988). The cells were maintained in Dulbecco's Modified Eagle medium with reduced L-glutamine (1 mM final concentration), 36 mg/L L-Proline and 10% dialysed foetal calf serum from Gibco-Invitrogen; the medium was supplemented with 500 microM α-methyl-4-carboxyphenylglycine (MCPG). Selection was made in the presence of G-418 (300 ug/ml final concentration). Clones were identified by reverse transcription of 5 μg total RNA, followed by PCR using mGlu2 receptor specific primers 5′-[…]-3′ and 5′-[…]-3′ in 60 mM Tris HCl (pH 10), 15 mM (NH4)2SO4, 2 mM MgCl2, 25 units/ml Taq Polymerase with 30 cycles annealing at 60° C. for 1 min., extension at 72° C. for 30 s, and 1 min. 95° C. denaturation.
Cells, cultured as above, were harvested and washed three times with cold PBS and frozen at −80° C. The pellet was resuspended in cold 20 mM HEPES-NaOH buffer containing 10 mM EDTA (pH 7.4), and homogenized with a polytron (Kinematica, AG, Littau, Switzerland) for 10 s at 10 000 rpm. After centrifugation for 30 min. at 4° C., the pellet was washed once with cold 20 mM HEPES-NaOH buffer containing 0.1 mM EDTA, (pH 7.4). After a second centrifugation for 30 min. at 4° C. the pellet was resuspended in cold 20 mM HEPES-NaOH buffer containing 0.1 mM EDTA, (pH 7.4). Protein content was measured using the Micro BCA method from Pierce-Perbio (Rockford, Ill., USA) using bovine serum albumin as standard.
After thawing, the membranes were resuspended in cold 50 mM Tris-HCl buffer containing 2 mM MgCl2 (pH 7.4) (binding buffer). The final concentration of the membranes in the assays was 25 μg protein/ml. Inhibition experiments were performed with membranes incubated with 10 nM [^3H]-LY354740 at room temperature, for 1 hour, in presence of various concentrations of the compound to be tested. Following the incubations, membranes were filtered onto Whatmann GF/B glass fiber filters or onto GF/B Unifilter plates and washed 5 times with cold binding buffer. Non specific binding was measured in the presence of 10 μM (2S,2′R,3′R)-2-(2′3′-Dicarboxycyclopropyl)glycine (DCG IV from Tocris, Ellisville, Mo. USA). After transfer of the filters into plastic vials containing 10 ml of Ultima-gold scintillation fluid from Perkin-Elmer (Boston, Mass., USA), the radioactivity was measured by liquid scintillation in a Tri-Carb 2500 TR counter (Packard, Zürich, Switzerland). For 96-Unifilter plates the radioactivity was measured after addition of Microscint 40 scintillation fluid (Perkin Elmer, Boston Mass.) using a TopCount NXT (Packard)
The inhibition curves were fitted with a four parameter logistic equation giving IC50 values, and Hill coefficients.

Where only a bound is given, the exact number is not on record here.

T1 sequence (P31421 19-872): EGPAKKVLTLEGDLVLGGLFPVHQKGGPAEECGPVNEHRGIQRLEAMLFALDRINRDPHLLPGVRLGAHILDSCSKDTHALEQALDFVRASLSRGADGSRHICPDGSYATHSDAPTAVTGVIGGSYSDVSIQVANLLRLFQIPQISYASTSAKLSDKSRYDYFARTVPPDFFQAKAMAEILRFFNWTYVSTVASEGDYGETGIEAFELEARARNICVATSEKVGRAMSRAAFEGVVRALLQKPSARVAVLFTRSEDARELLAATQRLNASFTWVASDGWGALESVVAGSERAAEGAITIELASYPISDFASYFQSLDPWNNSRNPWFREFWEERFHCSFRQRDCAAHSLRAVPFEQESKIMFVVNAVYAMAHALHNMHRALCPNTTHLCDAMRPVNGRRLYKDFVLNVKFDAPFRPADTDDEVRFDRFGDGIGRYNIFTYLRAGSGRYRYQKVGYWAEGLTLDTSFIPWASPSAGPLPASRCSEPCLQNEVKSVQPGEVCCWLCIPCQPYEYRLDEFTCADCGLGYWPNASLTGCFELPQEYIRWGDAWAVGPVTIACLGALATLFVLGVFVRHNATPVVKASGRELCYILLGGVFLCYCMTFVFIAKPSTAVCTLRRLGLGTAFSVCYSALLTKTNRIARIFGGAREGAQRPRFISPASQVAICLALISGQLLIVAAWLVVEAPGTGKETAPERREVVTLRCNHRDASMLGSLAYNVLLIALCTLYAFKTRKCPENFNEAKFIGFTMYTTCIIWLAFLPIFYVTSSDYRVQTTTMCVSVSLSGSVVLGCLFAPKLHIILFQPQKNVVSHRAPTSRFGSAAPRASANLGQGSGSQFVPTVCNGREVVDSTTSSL

Turning to `NS(=O)(=O)c1cccc(-c2cccc(C3=Nc4ccc(C(F)(F)F)cc4NC(=O)C3)c2)c1` [Example 8, 3′-(4-Oxo-7-trifluoromethyl-4,5-dihydro-3H-benzo[b][1,4]diazepin-2-yl)-biphenyl-3-sulfonic acid amide], the melting point is 170 °C (dec.). This compound returned a Ki at rat mGlu2 receptor of 1.7 nM.

In turn, `NS(=O)(=O)c1cccc(-c2cccc(C3=Nc4ccc(-c5ccccc5F)cc4NC(=O)C3)c2)c1` [Example 17, 3′-[7-(2-Fluoro-phenyl)-4-oxo-4,5-dihydro-3H-benzo[b][1,4]diazepin-2-yl]-biphenyl-3-sulfonic acid amide] returned a melting point of 230 to 232 °C. On rat mGlu2 receptor, this compound displayed a Ki of 2.2 nM.

On to `Cc1cc2c(cc1C(F)(F)F)NC(=O)CC(c1cccc(-c3cccc(S(N)(=O)=O)c3)c1)=N2` [Example 3, 3′-(8-Methyl-4-oxo-7-trifluoromethyl-4,5-dihydro-3H-benzo[b][1,4]diazepin-2-yl)-biphenyl-3-sulfonic acid amide], for which the melting point is 235 to 239 °C (dec.). In addition, affinity on rat mGlu2 receptor was put at a Ki of 0.9 nM.

On to `CC(C)CN(C)c1cc2c(cc1C(F)(F)F)NC(=O)CC(c1cccc(-c3ccc(S(N)(=O)=O)cc3)c1)=N2` [Example 14, 3′-[8-(Isobutyl-methyl-amino)-4-oxo-7-trifluoromethyl-4,5-dihydro-3H-benzo[b][1,4]diazepin-2-yl]-biphenyl-4-sulfonic acid amide], for which the melting point is 236 °C (dec.). Also, on rat mGlu2 receptor, the Ki worked out at 17 nM.

Take `Cc1cc2c(cc1C(F)(F)F)NC(=O)CC(c1cccc(-c3ccc(S(N)(=O)=O)cc3)c1)=N2` [Example 1, 3′-(8-Methyl-4-oxo-7-trifluoromethyl-4,5-dihydro-3H-benzo[b][1,4]diazepin-2-yl)-biphenyl-4-sulfonic acid amide]: the melting point is over 260 °C. The compound also had an inhibition constant (Ki) on rat mGlu2 receptor of 1.9 nM.

Regarding `CN(C)c1cc2c(cc1C(F)(F)F)NC(=O)CC(c1cccc(-c3ccc(S(N)(=O)=O)cc3)c1)=N2` [Example 12, 3′-(8-Dimethylamino-4-oxo-7-trifluoromethyl-4,5-dihydro-3H-benzo[b][1,4]diazepin-2-yl)-biphenyl-4-sulfonic acid amide], the melting point is 246 °C (dec.). At rat mGlu2 receptor, this compound came in with an inhibitory constant (Ki) of 3.1 nM.

As for `NS(=O)(=O)c1ccc(-c2cccc(C3=Nc4ccc(C(F)(F)F)cc4NC(=O)C3)c2)cc1` [Example 9, 3′-(4-Oxo-7-trifluoromethyl-4,5-dihydro-3H-benzo[b][1,4]diazepin-2-yl)-biphenyl-4-sulfonic acid amide], the melting point was 195 to 210 °C (dec.). The inhibition constant Ki on rat mGlu2 receptor worked out at 3 nM.

For `CC(C)(C)NS(=O)(=O)c1ccc(-c2cccc(C3=Nc4ccc(C(F)(F)F)cc4NC(=O)C3)c2)cc1` [Example 5, 3′-(4-Oxo-7-trifluoromethyl-4,5-dihydro-3H-benzo[b][1,4]diazepin-2-yl)-biphenyl-4-sulfonic acid tert-butylamide], the melting point lay in the range of 229 to 233 °C. At rat mGlu2 receptor, this compound showed an inhibitory constant (Ki) of 16 nM.

As for `Cc1cc2c(cc1C(F)(F)F)NC(=O)CC(c1cccc(-c3cccc(S(=O)(=O)NC(C)(C)C)c3)c1)=N2` [Example 2, 3′-(8-Methyl-4-oxo-7-trifluoromethyl-4,5-dihydro-3H-benzo[b][1,4]diazepin-2-yl)-biphenyl-3-sulfonic acid tert-butylamide], the melting point was 133 °C (dec.). For the same compound, the Ki at rat mGlu2 receptor was 20 nM.

Compound `CC(C)CNc1cc2c(cc1C(F)(F)F)NC(=O)CC(c1cccc(-c3ccc(S(N)(=O)=O)cc3)c1)=N2` [Example 18, 3′-(8-Isobutylamino-4-oxo-7-trifluoromethyl-4,5-dihydro-3H-benzo[b][1,4]diazepin-2-yl)-biphenyl-4-sulfonic acid amide] showed a Ki at rat mGlu2 receptor of 21 nM. This lies in the double-digit nanomolar range.

`NS(=O)(=O)c1ccc(-c2cccc(C3=Nc4ccc(-c5ccccc5F)cc4NC(=O)C3)c2)cc1` [Example 16, 3′-[7-(2-Fluoro-phenyl)-4-oxo-4,5-dihydro-3H-benzo[b][1,4]diazepin-2-yl]-biphenyl-4-sulfonic acid amide]: the melting point was 240 to 250 °C (dec.). Further, the Ki on rat mGlu2 receptor came out at 5.6 nM.

As to `CN(C)c1cc2c(cc1C(F)(F)F)NC(=O)CC(c1cccc(-c3cccc(S(N)(=O)=O)c3)c1)=N2` [Example 13, 3′-(8-Dimethylamino-4-oxo-7-trifluoromethyl-4,5-dihydro-3H-benzo[b][1,4]diazepin-2-yl)-biphenyl-3-sulfonic acid amide], the melting point was 258 °C (dec.). This compound yielded a Ki on rat mGlu2 receptor of 1.2 nM.

In turn, `CCOc1cc2c(cc1C(F)(F)F)NC(=O)CC(c1cccc(-c3ccc(S(=O)(=O)NC(C)(C)C)cc3)c1)=N2` [Example 7, 3′-(8-Ethoxy-4-oxo-7-trifluoromethyl-4,5-dihydro-3H-benzo[b][1,4]diazepin-2-yl)-biphenyl-4-sulfonic acid tert-butylamide] returned a melting point of over 260 °C. Besides, the Ki on rat mGlu2 receptor came out at 30 nM.

For `CC(C)CN(C)c1cc2c(cc1C(F)(F)F)NC(=O)CC(c1cccc(-c3cccc(S(N)(=O)=O)c3)c1)=N2` [Example 15, 3′-[8-(Isobutyl-methyl-amino)-4-oxo-7-trifluoromethyl-4,5-dihydro-3H-benzo[b][1,4]diazepin-2-yl]-biphenyl-3-sulfonic acid amide], the melting point is 232 °C (dec.). Besides, affinity at rat mGlu2 receptor was put at a Ki of 8.7 nM.

For the compound `CC(C)CNc1cc2c(cc1C(F)(F)F)NC(=O)CC(c1cccc(-c3cccc(S(N)(=O)=O)c3)c1)=N2` [Example 19, 3′-(8-Isobutylamino-4-oxo-7-trifluoromethyl-4,5-dihydro-3H-benzo[b][1,4]diazepin-2-yl)-biphenyl-3-sulfonic acid amide], the melting point was 251 °C (dec.). On rat mGlu2 receptor, this compound came in with an inhibitory constant (Ki) of 3.6 nM.

Regarding `CCOc1cc2c(cc1C(F)(F)F)NC(=O)CC(c1cccc(-c3ccc(S(N)(=O)=O)cc3)c1)=N2` [Example 11, 3′-(8-Ethoxy-4-oxo-7-trifluoromethyl-4,5-dihydro-3H-benzo[b][1,4]diazepin-2-yl)-biphenyl-4-sulfonic acid amide], the melting point is 245 to 250 °C (dec.). Further, affinity at rat mGlu2 receptor was put at a Ki of 3 nM.

For `CCOc1cc2c(cc1C(F)(F)F)NC(=O)CC(c1cccc(-c3cccc(S(N)(=O)=O)c3)c1)=N2` [Example 10, 3′-(8-Ethoxy-4-oxo-7-trifluoromethyl-4,5-dihydro-3H-benzo[b][1,4]diazepin-2-yl)-biphenyl-3-sulfonic acid amide], the melting point was 210 to 220 °C (dec.). In addition, the inhibition constant Ki on rat mGlu2 receptor is 2.7 nM.

As for `CCOc1cc2c(cc1C(F)(F)F)NC(=O)CC(c1cccc(-c3cccc(S(=O)(=O)NC(C)(C)C)c3)c1)=N2` [Example 6, 3′-(8-Ethoxy-4-oxo-7-trifluoromethyl-4,5-dihydro-3H-benzo[b][1,4]diazepin-2-yl)-biphenyl-3-sulfonic acid tert-butylamide], the melting point was in the range of 215 to 218 °C. Further, at rat mGlu2 receptor, the affinity, expressed as Ki, was 9 nM.

Consider `CC(C)(C)NS(=O)(=O)c1cccc(-c2cccc(C3=Nc4ccc(C(F)(F)F)cc4NC(=O)C3)c2)c1` [Example 4, 3′-(4-Oxo-7-trifluoromethyl-4,5-dihydro-3H-benzo[b][1,4]diazepin-2-yl)-biphenyl-3-sulfonic acid tert-butylamide], for which the melting point lay within 179 to 181 °C. The compound further registered a Ki at rat mGlu2 receptor of 12 nM.
